Measured values from patent US11707454B2, “Topical roflumilast formulation having antifungal properties” (ARCUTIS BIOTHERAPEUTICS, INC., priority 2020, dated 2023).
Where two headings read alike, the source gives them in different places.

Experiments:
Format in all cases: cell-based
M. furfur (ATCC 14521) = assay: in vitro micro-dilution susceptibility assay (method of Rojas); settings: for MIC: Malassezia furfur, read-out: minimum inhibition concentration (MIC)
Experimental: (§1) The in vitro susceptibility of Malassezia species to roflumilast was determined utilizing three Candida species as internal control isolates for all testing. These three isolates were C. albicans American Type Culture Collection (ATCC) 90028, C. krusei (ATCC 6258) and C. parapsilosis (ATCC 22019). In addition to testing roflumilast all susceptibility assays were conducted using ketoconazole and hydrocortisone as positive and negative control compounds, respectively. All assays were placed within a humidified incubator set to 32° C. for a total of seven days. Each assay was evaluated after 12 hours of incubation and, every 24 hours post incubation for a total of seven days. The assays were evaluated for visual growth of each pathogen in the no treatment control as well as determination of minimum inhibition concentration (MIC) values. The concentration that provides a 3-log10 CFU/mL reduction in fungal burden from baseline at day 0 was defined as the minimum fungicidal concentration (MHC) and was determined by quantifying fungal burdens found in the microplate at day seven.
(§2) The method of Rojas (Rojas F D, et al. Antifungal susceptibility of Malassezia furfur, Malassezia sympodialis, and Malassezia globose to azole drugs and amphotericin B evaluated using a broth microdilution method. 2014. Medical Mycology. 52:641-646) was used in which the liquid broth medium was RPMI 1640 with added 1.8% glucose, 1% peptone, 0.5% ox-bile, 0.5% malt extract, 1% glycerol, 0.5% Tween 40 and 0.05% Tween 80. Round bottom 96 well microplates were used. The inoculums were prepared in sterile saline and diluted to a final targeted concentration of 0.5×10^5 to 2.5×10^5 CFU/mL in supplemented RPMI. […] For the internal control isolate C. parapsilosis (ATCC 22019) the expected CLSI values for ketoconazole of 0.03-0.25 (at 24 hours) and 0.06-0.5 (at 48 hours) did agree with the 2-day value (Table A) of 0.5.

C. krusei (ATCC 6258) = assay: as above; settings: Pichia kudriavzevii, read-out: minimum inhibition concentration (MIC)
Experimental: as §1, §2

[1] = system: M. globose (ATCC MYA-4889); assay: as above; settings: for MIC: read-out: minimum inhibition concentration (MIC)
Experimental: as §1, §2

M. furfur (ATCC 12078) = assay: as above; settings: for MIC: Malassezia furfur, read-out: minimum inhibition concentration (MIC)
Experimental: as §1, §2

[2] = system: M. restricta (ATCC MYA-4611); assay: as above; settings: for MIC: read-out: minimum inhibition concentration (MIC)
Experimental: as §1, §2

C. albicans (ATCC 90028) = assay: as above; settings: Candida albicans, read-out: minimum inhibition concentration (MIC)
Experimental: as §1, §2

M. furfur (ATCC 44344) = assay: as above; settings: for MIC: Malassezia furfur, read-out: minimum inhibition concentration (MIC)
Experimental: as §1, §2

[3] = system: C. parapsilosis (ATCC 22019); assay: as above; settings: Lodderomyces parapsilosis, C. parapsilosis (22019), read-out: minimum inhibition concentration (MIC)
Experimental: as §1, §2

[4] = system: Malassezia species and Candida species; assay: in vitro micro-dilution susceptibility assay, summary over all isolates; settings: negative control
Experimental: as §1, with “seven. […]” for “seven.”

SMILES: C[C@]12CCC(=O)C=C1CC[C@@H]1[C@@H]2[C@@H](O)C[C@@]2(C)[C@H]1CC[C@]2(O)C(=O)CO [Hydrocortisone]
- MIC (M. furfur (ATCC 14521); ATCC14521, 48 h, Time 2 days): > 1020 µg/mL
- MIC (M. furfur (ATCC 14521); ATCC14521, 72 h, Time 3 days): > 1020 µg/mL
- MIC (M. furfur (ATCC 14521); ATCC14521, 96 h, Time 4 days): > 1020 µg/mL
- MIC (M. furfur (ATCC 14521); ATCC14521, 120 h, Time 5 days): > 1020 µg/mL
- MIC (M. furfur (ATCC 14521); ATCC14521, 144 h, Time 6 days): > 1020 µg/mL
- MIC (M. furfur (ATCC 14521); ATCC14521, 168 h, Time 7 days): > 1020 µg/mL
- minimum inhibition concentration (MIC) (M. furfur (ATCC 14521); Time 0.5 days): NGO
- minimum inhibition concentration (MIC) (M. furfur (ATCC 14521); Time 1 days): NGO
- MIC (C. krusei (ATCC 6258); ATCC6258, 12 h, Time 0.5 days): > 1020 µg/mL
- MIC (C. krusei (ATCC 6258); ATCC6258, 24 h, Time 1 days): > 1020 µg/mL
- MIC (C. krusei (ATCC 6258); ATCC6258, 48 h, Time 2 days): > 1020 µg/mL
- MIC (C. krusei (ATCC 6258); ATCC6258, 72 h, Time 3 days): > 1020 µg/mL
- MIC (C. krusei (ATCC 6258); ATCC6258, 96 h, Time 4 days): > 1020 µg/mL
- MIC (C. krusei (ATCC 6258); ATCC6258, 120 h, Time 5 days): > 1020 µg/mL
- MIC (C. krusei (ATCC 6258); ATCC6258, 144 h, Time 6 days): > 1020 µg/mL
- MIC (C. krusei (ATCC 6258); ATCC6258, 168 h, Time 7 days): > 1020 µg/mL
- MIC ([1]; 120 h, Time 5 days): > 1020 µg/mL
- MIC ([1]; 144 h, Time 6 days): > 1020 µg/mL
- MIC ([1]; 168 h, Time 7 days): > 1020 µg/mL
- minimum inhibition concentration (MIC) ([1]; Time 0.5 days): NGO
- minimum inhibition concentration (MIC) ([1]; Time 1 days): NGO
- minimum inhibition concentration (MIC) ([1]; Time 2 days): NGO
- minimum inhibition concentration (MIC) ([1]; Time 3 days): NGO
- minimum inhibition concentration (MIC) ([1]; Time 4 days): NGO
- MIC (M. furfur (ATCC 12078); ATCC12078, 48 h, Time 2 days): > 1020 µg/mL
- MIC (M. furfur (ATCC 12078); ATCC12078, 72 h, Time 3 days): > 1020 µg/mL
- MIC (M. furfur (ATCC 12078); ATCC12078, 96 h, Time 4 days): > 1020 µg/mL
- MIC (M. furfur (ATCC 12078); ATCC12078, 120 h, Time 5 days): > 1020 µg/mL
- MIC (M. furfur (ATCC 12078); ATCC12078, 144 h, Time 6 days): > 1020 µg/mL
- MIC (M. furfur (ATCC 12078); ATCC12078, 168 h, Time 7 days): > 1020 µg/mL
- minimum inhibition concentration (MIC) (M. furfur (ATCC 12078); Time 0.5 days): NGO
- minimum inhibition concentration (MIC) (M. furfur (ATCC 12078); Time 1 days): NGO
- MIC ([2]; 120 h, Time 5 days): > 1020 µg/mL
- MIC ([2]; 144 h, Time 6 days): > 1020 µg/mL
- MIC ([2]; 168 h, Time 7 days): > 1020 µg/mL
- minimum inhibition concentration (MIC) ([2]; Time 0.5 days): NGO
- minimum inhibition concentration (MIC) ([2]; Time 1 days): NGO
- minimum inhibition concentration (MIC) ([2]; Time 2 days): NGO
- minimum inhibition concentration (MIC) ([2]; Time 3 days): NGO
- minimum inhibition concentration (MIC) ([2]; Time 4 days): NGO
- MIC (C. albicans (ATCC 90028); ATCC90028, 12 h, Time 0.5 days): > 1020 µg/mL
- MIC (C. albicans (ATCC 90028); ATCC90028, 24 h, Time 1 days): > 1020 µg/mL
- MIC (C. albicans (ATCC 90028); ATCC90028, 48 h, Time 2 days): > 1020 µg/mL
- MIC (C. albicans (ATCC 90028); ATCC90028, 72 h, Time 3 days): > 1020 µg/mL
- MIC (C. albicans (ATCC 90028); ATCC90028, 96 h, Time 4 days): > 1020 µg/mL
- MIC (C. albicans (ATCC 90028); ATCC90028, 120 h, Time 5 days): > 1020 µg/mL
- MIC (C. albicans (ATCC 90028); ATCC90028, 144 h, Time 6 days): > 1020 µg/mL
- MIC (C. albicans (ATCC 90028); ATCC90028, 168 h, Time 7 days): > 1020 µg/mL
- MIC (M. furfur (ATCC 44344); ATCC44344, 48 h, Time 2 days): > 1020 µg/mL
- MIC (M. furfur (ATCC 44344); ATCC44344, 72 h, Time 3 days): > 1020 µg/mL
- MIC (M. furfur (ATCC 44344); ATCC44344, 96 h, Time 4 days): > 1020 µg/mL
- MIC (M. furfur (ATCC 44344); ATCC44344, 120 h, Time 5 days): > 1020 µg/mL
- MIC (M. furfur (ATCC 44344); ATCC44344, 144 h, Time 6 days): > 1020 µg/mL
- MIC (M. furfur (ATCC 44344); ATCC44344, 168 h, Time 7 days): > 1020 µg/mL
- minimum inhibition concentration (MIC) (M. furfur (ATCC 44344); Time 0.5 days): NGO
- minimum inhibition concentration (MIC) (M. furfur (ATCC 44344); Time 1 days): NGO
- MIC ([3]; ATCC22019, 12 h, Time 0.5 days): > 1020 µg/mL
- MIC ([3]; ATCC22019, 24 h, Time 1 days): > 1020 µg/mL
- MIC ([3]; ATCC22019, 48 h, Time 2 days): > 1020 µg/mL
- MIC ([3]; ATCC22019, 72 h, Time 3 days): > 1020 µg/mL
- MIC ([3]; ATCC22019, 96 h, Time 4 days): > 1020 µg/mL
- MIC ([3]; ATCC22019, 120 h, Time 5 days): > 1020 µg/mL
- MIC ([3]; ATCC22019, 144 h, Time 6 days): > 1020 µg/mL
- MIC ([3]; ATCC22019, 168 h, Time 7 days): > 1020 µg/mL
- anti-fungal activity (all isolates) [4]: no anti-fungal activity
